In patent US7919475B2, “Compositions and methods for improving heart function” (The Regents of The University of California, priority 2004, dated 2011):

Legend:
[1] = tested on: neonatal rat cardiomyocytes; assay: Indo-1 [Ca2+]i transients in cultured neonatal cardiomyocytes; format: cell-based; details: for time to achieve a 50% decrease in the calcium transient (T1/2): 5.5 mM glucose supplemented with 8 mM glucosamine or 50 μM PUGNAc, 72 hours; for increase in diastolic calcium decay relative to controls: 5.5 mM glucose with 8 mM glucosamine or 50 μM PUGNAc
Procedure: (§1) Cardiomyocyte Isolation and Culture. Primary cultures of neonatal rat cardiomyocytes were prepared as described previously, see, e.g., Hartong (1996) J. Mol. Cell. Cardiol. 28:2467-2477. Cells were plated onto gelatin-coated culture dishes or laminin-coated glass chamber slides. Plating medium consisted of 4.25:1 DMEM:M199, 10% horse serum, 5% fetal bovine serum, 1% penicillin/streptomycin/fungizone (PSF), and 5.5 mM D-glucose. Cells were allowed to adhere to the plates for 24 hours before changing to basic experimental culture medium (4.5:1 DMEM:M199, 2% fetal bovine serum, 1% PSF, and 100 μM insulin) and supplemented with glucose at either physiological (5.5 mM; normal glucose) or elevated (25 mM; high glucose) concentrations. For some experiments, media was supplemented with 8 mM glucosamine, 40 μM aminoguanidine, 0.5 μg/ml tunicamycin, 50 μM PUGNAc or an osmotic control (20 mM mannitol). In cases where cells were plated at exceptionally high density (5×10^6 per 100 mm plate), the culture medium was changed daily until the cells were harvested.
Construction of adenoviral vectors. The rat cDNA corresponding to the UDP-N-acetylglucosamine:peptide N-acetylglucosaminyl transferase gene (O-GlcNAc transferase; OGT), which encodes the enzyme responsible for the O-linkage of single N-acetylglucosamine molecules to serine/threonine residues (19), and the human cDNA encoding the O-GlcNAcase gene (GCA), the enzyme responsible for removing O-linked N-acetylglucosamine residues (see, e.g., Haltiwanger (1992) J. Biol. Chem. 267:9005-9013). Each cDNA was inserted into the E1 region of an adenoviral vector construct using previously described methods (see, e.g., Gao (2001) J. Biol. Chem. 276:9838-9845). Replication-deficient adenovirus particles containing the target gene or empty vector (SR−) were generated by in vivo recombination in 293 cells and single plaques were isolated and propagated to achieve high titer. Adenoviral particles were CsCl-purified and quantified by plaque titer assay. Myocytes were infected with a multiplicity of infection (MOI) of 25 for all viruses.
Measurement of [Ca^2+]I transients. Indo-1 facilitated measurement of Ca^2+ transients has been described previously, see, e.g., He (1997) J. Clin. Invest 100:380-389). […] Cells were rinsed and incubated for 20 min at RT in appropriate serum-free culture medium containing 1.8 mM CaCl2 prior to making fluorescence measurements to allow for deesterification of the Indo-1/AM. […] Transients were measured from at least 18 cells per slide per treatment. […]
Calcium transients. To determine whether elevated extracellular glucose and increased O-GlcNAcylation would exert an effect on intracellular calcium flux, Indo-1 calcium transients were determined in neonatal rat cardiomyocytes. […]

[2] = tested on: nuclear O-GlcNAcylation; assay: Nuclear O-GlcNAcylation by Western immunoblot (antibody 110.6) in neonatal cardiomyocytes; format: cell-based, rat; details: 72 hours; 25 mM glucose; 5.5 mM glucose with 8 mM glucosamine or 50 μM PUGNAc; 25 mM glucose with adenovirus MOI 25
Procedure: Samples of each extract (25-50 μg) were fractionated by SDS-PAGE on precast 4-20% Tris-glycine gels (BioRad) and transferred to nylon membranes. Membranes were blocked overnight, exposed to the O-GlcNAc-specific antibody 110.6 (17) (1:10,000) overnight at 4° C., then exposed for 1 hour to 1:5,000 goat anti-mouse IgM-HRP. Alternatively, membranes were exposed to anti-MEF-2 (1:200) for one hour at RT followed by a one hour exposure to 1:10,000 goat anti-rabbit IgG-HRP. Visualization and quantification was as described above.
Cells were cultured for 72 hours in 5.5 mM glucose (NG) or 25 mM glucose (HG) and supplemented with one of the following: 8 mM glucosamine (NG/GlcN), 50 μM PUGNAc, or adenovirus encoding either OGT or GCA. Adenoviruses were applied at an MOI=25. Nuclear extracts (50 μg) were prepared according to the methods outlines in “Experimental Procedures”, resolved on 4-20% gradient SDS-tricine gels, transferred to nylon membranes and immunoblotted with a monoclonal anti-O-GlcNAc antibody 110.6.

[3] = tested on: CB6F1 mice; assay: Blood glucose and cardiac UDP-sugar nucleotides in streptozocin-injected mice; format: in vivo, mouse; details: streptozocin 150 mg/kg intraperitoneal, three weeks
Procedure: Animals and Determination of Cardiac Sugar Nucleotides. Male CB6F1 mice weighing 20-25 g (Charles River, Wilmington, Mass.) were made diabetic using methods described previously, see, e.g., Trost (2002) supra. Briefly, diabetes was induced with a single intraperitoneal injection of streptozocin (150 mg/kg in citrate saline, pH 4.5) to animals fasted overnight (16 hrs). Diabetic animals were sacrificed three weeks following injection. To determine the degree of diabetes, blood was drawn via direct cardiac puncture in CO2-euthanized animals and plasma glucose concentration was determined using the Sigma Glucose Kit (510-A).
Sugar nucleotides were extracted from fresh ventricles and quantified by HPLC as described by Weckbecker (1983) Anal. Biochem. 132:405-412. Hearts were homogenized in 3 vols of ice-cold 0.3 M HClO4 and debris pelleted at 10,000×g for 15 min at 4° C. Two vols of 1:4 trioctylamine: 1,1,2-trichlorotrifluoroethane (Freon) were added to the supernatant, followed by vortexing for 30 sec and centrifuging at 1000×g for 5 min at 4° C. The aqueous phase was carefully transferred to a fresh tube and frozen at −80° C. until assayed. Samples were diluted in 0.5 ml H2O and desalted on a Mono-Q column (flow rate 1 ml/min). The combined UDP-GlcNAc/GalNAc fraction was collected as a peak at 23 minutes and the sample was lyophilized overnight. Dried samples were subsequently dissolved in borate solution (0.22 M boric acid, 0.09 M disodium tetraborate, and 1.2 M glycerol, pH 6.85), and separated into distinct UDP-GlcNAc and UDP-GalNAc peaks on a Partisil SAX-10 column. […]
Effects of STZ-induced diabetes on UDP-nucleotide levels. […] Blood was drawn via direct cardiac puncture and plasma [glucose] was subsequently determined using a Sigma Glucose kit. Sugar nucleotides were extracted immediately from hearts and quantitated using HPLC as described in “Experimental Procedures” above. […] Fractions were quantified by comparing total peak area with results from known concentrations of each sugar nucleotide.

[4] = tested on: SERCA2a; assay: SERCA2a protein level by Western immunoblot in neonatal cardiomyocytes; format: cell-based, rat; details: for influence on SERCA2a protein levels: 40 μM aminoguanidine or 0.5 μg/ml tunicamycin, regardless of glucose concentration
Procedure: as §1
Western Immunoblotting. To determine SERCA2a protein levels, myocytes (1×10^6) were washed with phosphate buffered saline (PBS), then extracted with 0.2 ml lysis buffer (20 mM Tris, pH 7.4, 20 mM NaCl, 0.1 mM EDTA, 1% Triton X-100, 0.5% Na-deoxycholate, 1 mM dithiothreitol). Lysates were incubated on ice for 30 min, and cellular debris was pelleted at 10,000×g for 20 min at 4° C. Protein concentration in the supernatant was determined by BioRad protein reagent. 30 μg of protein diluted in extraction buffer and 4× Laemmli sample buffer were loaded without boiling onto pre-cast 4-20% Tris-glycine gels. Separated proteins were transferred to nylon membranes using a Bio-Rad Mini Trans-Blot apparatus and blocked overnight at 4° C. Blots were incubated with a rabbit polyclonal SERCA2a antibody (see, e.g., Hartong (1996) supra) (1:5000) for 1 hour at RT, followed by a 1 hour incubation with a 1:5000 dilution of goat anti-rabbit IgG-HRP conjugated secondary antibody (Amersham). Bands were visualized by reacting with chemiluminescent substrate (NEN) and exposed to film. Protein bands were quantified from scanned images using Scion imaging software (Scion, Frederick, Md.).
SERCA2a in RNA, protein expression and promoter activity. […] FIG. 2 illustrates Northern and western blots of neonatal cardiomyocytes. (FIG. 2A) Results of a northern blot for SERCA2a mRNA in neonatal cardiomyocytes cultured for 72 hours with 5.5 mM (NG) or 25 mM (HG) glucose. Total RNA (15 μg) isolated from cultured myocytes was resolved using a denaturing agarose gel, transferred to a nylon membrane and probed with a full length ^32P-labeled probe corresponding to rat SERCA2a as described in “Experimental Procedures”. (FIG. 2B) Western immunoblot analysis of SERCA2a protein levels from neonatal cardiomyocytes exposed to 5.5 mM or 25 mM glucose in the presence and absence of 40 μM aminoguanidine (AG), 0.5 μg/ml tunicamycin (Tun), or 8 mM glucosamine (GlcN, 5.5 mM glucose group only). Crude lysates (30 μg) were resolved using 4-20% gradient SDS-PAGE gels, transferred to nylon membranes, and immunoblotted with a SERCA2a polyclonal antibody as described in “Experimental Procedures”. […] (C) SERCA2a protein levels based on Western immunoblots from adenovirus-infected neonatal cardiomyocytes.

[5] = tested on: MEF-2a; assay: MEF-2a protein level by immunoblot of nuclear extracts of neonatal cardiomyocytes; format: cell-based, rat; details: 25 mM glucose; 5.5 mM glucose with 8 mM glucosamine; 25 mM glucose with adeno-OGT MOI 25
Procedure: To examine cellular O-GlcNAcylation and MEF-2a levels, nuclear extracts were prepared from neonatal cardiomyocytes (2×10^6) using modifications of the procedures described by Dignam (1983) Nucleic Acids Res. 11:1475-1489. Samples of each extract (25-50 μg) were fractionated by SDS-PAGE on precast 4-20% Tris-glycine gels (BioRad) and transferred to nylon membranes. Membranes were blocked overnight, exposed to the O-GlcNAc-specific antibody 110.6 (17) (1:10,000) overnight at 4° C., then exposed for 1 hour to 1:5,000 goat anti-mouse IgM-HRP. Alternatively, membranes were exposed to anti-MEF-2 (1:200) for one hour at RT followed by a one hour exposure to 1:10,000 goat anti-rabbit IgG-HRP. Visualization and quantification was as described above.
Nuclear extracts (50 μg) were prepared as described in “Experimental Procedures” above, resolved on 10% SDS-PAGE gels, transferred to nylon membranes and immunoblotted with anti-MEF2 antibody (Santa Cruz Biotech).

[6] = tested on: rat SERCA2a promoter; assay: SERCA2a promoter luciferase assay in neonatal cardiomyocytes; format: cell-based; details: 5.5 mM glucose/8 mM glucosamine
Procedure: Transfections and SERCA2a Promoter Luciferase Assays. DNA transfection of neonatal cardiomyocytes was performed using the calcium phosphate-DNA co-precipitation method, see, e.g., Chen (1987) Mol. Cell. Biol 7:2745-2752. Cells (0.5×10^6) were transfected overnight in appropriate culture medium (either NG- or HG-containing medium) with 50 ng of either a 0.6 kb fragment of the rat SERCA2a promoter (corresponding to the 600 bases immediately upstream of the transcriptional start codon) (see, e.g., Rohrer (1991) J. Biol. Chem. 266:8638-8646) or a control plasmid (pGL3; Promega) and 3 μg of fill plasmid (pBS; Stratagene), then washed with PBS and changed into fresh culture medium. […] Transfected cells were incubated for 48 hours, then washed with PBS and incubated for 10 min with gentle agitation at RT in 200 μl of harvest buffer (50 mM MES/Tris pH 7.8, 0.1% Triton X-100, and 1.3 mM dithiothreitol). Luciferase activity was measured using 100 μl of extract in a luminometer.
The reduction in SERCA2a mRNA and protein expression observed following treatment of myocytes with high glucose prompted us to examine whether these effects were being exerted, at least in part, by interactions with the SERCA2a gene promoter. […] Crude cell lysates were incubated with luciferase substrate and relative light units were measured on a luminometer. […]

CC(=O)N[C@H]1/C(=N/OC(=O)Nc2ccccc2)O[C@H](CO)[C@@H](O)[C@@H]1O [PUGNAc, O-(2-acetamido-2-deoxy-D-glucopyranosylidene)amino-N-phenyl carbamate]
time to achieve a 50% decrease in the calcium transient (T1/2) [1]: 1.31 ± 0.085 s | increase in diastolic calcium decay relative to controls [1]: 43% | overall levels of nuclear O-GlcNAcylation [2]: substantially increased

CN(N=O)C(=O)N[C@@H](C=O)[C@@H](O)[C@H](O)[C@H](O)CO [STZ, streptozocin]
UDP-GalNAc in heart [3]: 0.51 ± 0.01 nmol | UDP-GlcNAc in heart [3]: 1.36 ± 0.03 nmol | blood glucose [3]: 969 ± 40 mg/dL

N=C(N)NN [aminoguanidine]
influence on SERCA2a protein levels [4]: Neither aminoguanidine nor tunicamycin appeared to influence SERCA2a protein levels | apparent increase in SERCA2a vs controls ([4]; 25 mM glucose and 40 μM aminoguanidine, repeated trials): not statistically significant

N[C@H]1C(O)O[C@H](CO)[C@@H](O)[C@@H]1O (some centres unmarked) [glucosamine]
decrease in MEF-2a expression levels compared with normal glucose controls [5]: 52% | change in SERCA2a protein compared with controls ([4]; 5.5 mM glucose and 8 mM glucosamine): −25±3% | SERCA2a protein levels compared with myocytes exposed only to 5.5 mM glucose ([4]; 25 mM glucose and glucosamine): unchanged | time to achieve a 50% decrease in the calcium transient (T1/2) [1]: 1.32 ± 0.061 s | increase in diastolic calcium decay relative to controls [1]: 43% | reduction in SERCA2a promoter activity compared with normal glucose controls [6]: 33% | overall levels of nuclear O-GlcNAcylation [2]: substantially increased

OC[C@@H](O)[C@@H](O)[C@H](O)[C@H](O)CO [mannitol]
osmotic effect on SERCA2a protein levels ([4]; 5.5 mM glucose and 20 mM mannitol): nor did we observe any osmotic effect

tunicamycin
influence on SERCA2a protein levels [4]: Neither aminoguanidine nor tunicamycin appeared to influence SERCA2a protein levels
